Source: ChEMBL document CHEMBL2439969, “Replacement of Thr32 and Gln34 in the C-terminal neuropeptide Y fragment 25-36 by cis-cyclobutane and cis-cyclopentane β-amino acids shifts selectivity toward the Y(4) receptor” (J Med Chem, 2013)
Residues, ends and D or L forms follow the SMILES beside them.

Tests used:
[1] = target: T1, Neuropeptide Y receptor type 4 (Homo sapiens, UniProt P50391); experiment: Partial agonist activity at human Y4 receptor expressed in sf9 cells assessed as hydrolysis of [gamma-33P]GTP after 2 mins by scintillation counting analysis relative to hPP
[2] = target: T2, Neuropeptide Y receptor type 5 (Homo sapiens, UniProt Q15761); experiment: Displacement of Cy5-pNPY from human Y5 receptor expressed in human HEC-1B cells after 90 to 120 mins by flow cytometry; assay type: cell-based
T2 sequence (Q15761 whole entry): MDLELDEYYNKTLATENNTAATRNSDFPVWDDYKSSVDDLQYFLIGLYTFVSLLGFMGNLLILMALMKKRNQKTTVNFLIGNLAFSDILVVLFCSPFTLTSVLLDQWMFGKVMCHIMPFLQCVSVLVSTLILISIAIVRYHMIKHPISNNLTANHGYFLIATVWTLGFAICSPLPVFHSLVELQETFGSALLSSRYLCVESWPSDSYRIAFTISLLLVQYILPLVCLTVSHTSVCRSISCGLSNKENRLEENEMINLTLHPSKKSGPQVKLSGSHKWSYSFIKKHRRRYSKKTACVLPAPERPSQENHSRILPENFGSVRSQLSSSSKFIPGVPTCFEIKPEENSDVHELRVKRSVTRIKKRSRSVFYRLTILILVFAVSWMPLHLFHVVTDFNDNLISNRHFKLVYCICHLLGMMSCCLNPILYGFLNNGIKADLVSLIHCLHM

[3] = target: T3, Neuropeptide Y receptor type 2 (Homo sapiens, UniProt P49146); experiment: Displacement of Cy5-pNPY from human Y2 receptor expressed in CHO cells after 90 to 120 mins by flow cytometry; assay type: cell-based
T3 sequence (P49146 whole entry): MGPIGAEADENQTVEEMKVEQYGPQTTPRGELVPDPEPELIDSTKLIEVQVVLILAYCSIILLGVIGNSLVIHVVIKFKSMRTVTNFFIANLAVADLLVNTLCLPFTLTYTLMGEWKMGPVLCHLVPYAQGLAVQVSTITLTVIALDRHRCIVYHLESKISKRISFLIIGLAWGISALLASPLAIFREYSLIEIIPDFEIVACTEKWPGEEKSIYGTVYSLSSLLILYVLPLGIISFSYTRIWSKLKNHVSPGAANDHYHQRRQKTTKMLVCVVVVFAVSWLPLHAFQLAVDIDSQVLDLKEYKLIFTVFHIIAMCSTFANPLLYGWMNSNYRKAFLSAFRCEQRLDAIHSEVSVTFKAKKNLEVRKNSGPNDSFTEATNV

[4] = target: T1, Neuropeptide Y receptor type 4; experiment: Agonist activity at human Y4 receptor expressed in sf9 cells assessed as hydrolysis of [gamma-33P]GTP after 2 mins by scintillation counting analysis
[5] = target: T1, Neuropeptide Y receptor type 4; experiment: Displacement of Cy5-[K4]hPP from human Y4 receptor expressed in CHO cells after 90 to 120 mins by flow cytometry; assay type: cell-based
[6] = target: T4, Neuropeptide Y receptor type 1 (Homo sapiens, UniProt P25929); experiment: Displacement of Cy5-pNPY from human Y1 receptor expressed in HEL cells after 90 to 120 mins by flow cytometry; assay type: cell-based
T4 sequence (P25929 whole entry): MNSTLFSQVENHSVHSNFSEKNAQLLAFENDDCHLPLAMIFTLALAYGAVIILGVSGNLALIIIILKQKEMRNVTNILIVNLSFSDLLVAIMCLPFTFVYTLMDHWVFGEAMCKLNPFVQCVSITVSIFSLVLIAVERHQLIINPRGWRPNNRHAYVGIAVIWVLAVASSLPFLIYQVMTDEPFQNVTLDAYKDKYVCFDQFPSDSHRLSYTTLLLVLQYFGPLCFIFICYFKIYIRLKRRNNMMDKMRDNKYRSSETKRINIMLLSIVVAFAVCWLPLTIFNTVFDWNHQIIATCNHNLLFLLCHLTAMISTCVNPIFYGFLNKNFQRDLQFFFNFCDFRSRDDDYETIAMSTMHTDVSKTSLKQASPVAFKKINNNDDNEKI

T1 sequence (P50391 whole entry): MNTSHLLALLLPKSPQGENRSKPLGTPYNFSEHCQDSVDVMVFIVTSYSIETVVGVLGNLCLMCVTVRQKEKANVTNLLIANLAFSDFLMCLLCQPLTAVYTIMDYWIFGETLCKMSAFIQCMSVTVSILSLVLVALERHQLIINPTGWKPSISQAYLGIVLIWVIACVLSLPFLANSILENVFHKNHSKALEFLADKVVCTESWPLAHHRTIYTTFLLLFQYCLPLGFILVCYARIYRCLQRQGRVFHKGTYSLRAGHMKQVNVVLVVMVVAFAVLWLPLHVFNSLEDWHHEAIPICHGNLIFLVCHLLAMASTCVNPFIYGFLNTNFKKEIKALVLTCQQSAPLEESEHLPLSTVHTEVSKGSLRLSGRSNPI

Emax [1] [%]	Ki [2] [nM]	Ki [3] [nM]	EC50 [4] [nM]	Ki [5] [nM]	Ki [6] [nM]	Compound
71	–	–	–	–	–	CC[C@H](C)[C@H](NC(=O)[C@H](Cc1ccc(O)cc1)NC(=O)[C@H](Cc1cnc[nH]1)NC(=O)[C@H](CCCNC(=N)N)NC(C)=O)C(=O)N[C@@H](CC(N)=O)C(=O)N[C@@H](CC(C)C)C(=O)N[C@H](C(=O)N[C@H](C(=O)N[C@@H](CCCNC(=N)N)C(=O)N[C@H]1CCC[C@H]1C(=O)N[C@@H](CCCNC(=N)N)C(=O)N[C@@H](Cc1ccc(O)cc1)C(N)=O)[C@@H](C)O)[C@@H](C)CC (HELM PEPTIDE1{[ac].R.H.Y.I.N.L.I.T.R.[O=C([C@@H]1CCC[C@@H]1N[*:1])[*:2]].R.Y.[am]}$$$$V2.0)
–	> 1000	> 1000	122	72	> 1000	CC[C@H](C)[C@H](NC(=O)[C@H](Cc1ccc(O)cc1)NC(=O)[C@H](Cc1cnc[nH]1)NC(=O)[C@H](CCCNC(=N)N)NC(C)=O)C(=O)N[C@@H](CC(N)=O)C(=O)N[C@@H](CC(C)C)C(=O)N[C@H](C(=O)N[C@H](C(=O)N[C@@H](CCCNC(=N)N)C(=O)N[C@H]1CC[C@H]1C(=O)N[C@@H](CCCNC(=N)N)C(=O)N[C@@H](Cc1ccc(O)cc1)C(N)=O)[C@@H](C)O)[C@@H](C)CC (HELM PEPTIDE1{[ac].R.H.Y.I.N.L.I.T.R.[O=C([C@@H]1CC[C@@H]1N[*:1])[*:2]].R.Y.[am]}$$$$V2.0)
–	> 1000	> 1000	100	157	> 1000	Ac-RHYINLITRLRY-NH2
–	> 500	> 1000	48	37	> 1000	CC[C@H](C)[C@H](NC(=O)[C@H](Cc1ccc(O)cc1)NC(=O)[C@H](Cc1cnc[nH]1)NC(=O)[C@H](CCCN=C(N)N)NC(C)=O)C(=O)N[C@@H](CC(N)=O)C(=O)N[C@@H](CC(C)C)C(=O)N[C@H](C(=O)N[C@H]1CCC[C@H]1C(=O)N[C@@H](CCCN=C(N)N)C(=O)N[C@H]1CCC[C@H]1C(=O)N[C@@H](CCCN=C(N)N)C(=O)N[C@@H](Cc1ccc(O)cc1)C(N)=O)[C@@H](C)CC (HELM PEPTIDE1{[ac].R.H.Y.I.N.L.I.[O=C([C@@H]1CCC[C@@H]1N[*:1])[*:2]].R.[O=C([C@@H]1CCC[C@@H]1N[*:1])[*:2]].R.Y.[am]}$$$$V2.0)
–	> 1000	> 1000	94	105	> 1000	CC(=O)N[C@@H](Cc1ccc(O)cc1)C(=O)N[C@@H](CCCNC(=N)N)C(=O)N[C@H]1CCC[C@H]1C(=O)N[C@@H](CCCN=C(N)N)C(=O)N[C@@H](Cc1ccc(O)cc1)C(N)=O (HELM PEPTIDE1{[ac].Y.R.[O=C([C@@H]1CCC[C@@H]1N[*:1])[*:2]].R.Y.[am]}$$$$V2.0)
–	> 1000	> 1000	–	–	> 1000	Ac-YRLRY-NH2
–	> 500	217	51	14	> 1000	CCCC[C@H](NC(=O)[C@H](CC(N)=O)NC(=O)[C@@H](NC(=O)[C@H](Cc1ccc(O)cc1)NC(=O)[C@H](CCCNC(=N)N)NC(=O)[C@H](CCCNC(=N)N)NC(C)=O)[C@@H](C)CC)C(=O)N[C@@H](CC(C)C)C(=O)N[C@H](C(=O)N[C@@H](CCCNC(=N)N)C(=O)N[C@H]1CCC[C@H]1C(=O)N[C@@H](CCCNC(=N)N)C(=O)N[C@@H](Cc1ccc(O)cc1)C(N)=O)[C@@H](C)O (HELM PEPTIDE1{[ac].R.R.Y.I.N.[Nle].L.T.R.[O=C([C@@H]1CCC[C@@H]1N[*:1])[*:2]].R.Y.[am]}$$$$V2.0)
–	> 1000	> 1000	76	70	> 1000	CC[C@H](C)[C@H](NC(=O)[C@H](Cc1ccc(O)cc1)NC(=O)[C@H](CCCNC(=N)N)NC(=O)[C@H](CCCNC(=N)N)NC(C)=O)C(=O)N[C@@H](CC(N)=O)C(=O)N[C@@H](CC(N)=O)C(=O)N[C@@H](CC(C)C)C(=O)N[C@H](C(=O)N[C@@H](CCCNC(=N)N)C(=O)N[C@H]1CC[C@H]1C(=O)N[C@@H](CCCNC(=N)N)C(=O)N[C@@H](Cc1ccc(O)cc1)C(N)=O)[C@@H](C)O (HELM PEPTIDE1{[ac].R.R.Y.I.N.N.L.T.R.[O=C([C@@H]1CC[C@@H]1N[*:1])[*:2]].R.Y.[am]}$$$$V2.0)
–	> 1000	> 1000	291	490	> 1000	Ac-TRLRY-NH2
–	> 1000	> 1000	451	509	> 1000	CC(=O)N[C@H](C(=O)N[C@@H](CCCNC(=N)N)C(=O)N[C@H]1CCC[C@H]1C(=O)N[C@@H](CCCNC(=N)N)C(=O)N[C@@H](Cc1ccc(O)cc1)C(N)=O)[C@@H](C)O (HELM PEPTIDE1{[ac].T.R.[O=C([C@@H]1CCC[C@@H]1N[*:1])[*:2]].R.Y.[am]}$$$$V2.0)
–	> 1000	> 1000	66	35	> 1000	CC[C@H](C)[C@H](NC(=O)[C@H](Cc1ccc(O)cc1)NC(=O)[C@H](Cc1cnc[nH]1)NC(=O)[C@H](CCCNC(=N)N)NC(C)=O)C(=O)N[C@@H](CC(N)=O)C(=O)N[C@@H](CC(C)C)C(=O)N[C@@H](CCCNC(=N)N)C(=O)N[C@H]1CC[C@H]1C(=O)N[C@@H](CCCNC(=N)N)C(=O)N[C@H]1CC[C@H]1C(=O)N[C@@H](CCCNC(=N)N)C(=O)N[C@@H](Cc1ccc(O)cc1)C(N)=O (HELM PEPTIDE1{[ac].R.H.Y.I.N.L.R.[O=C([C@@H]1CC[C@@H]1N[*:1])[*:2]].R.[O=C([C@@H]1CC[C@@H]1N[*:1])[*:2]].R.Y.[am]}$$$$V2.0)
–	> 1000	708	284	93	> 1000	CCCC[C@H](NC(=O)[C@H](CC(N)=O)NC(=O)[C@@H](NC(=O)[C@H](Cc1ccc(O)cc1)NC(=O)[C@H](CCCNC(=N)N)NC(=O)[C@H](CCCNC(=N)N)NC(C)=O)[C@@H](C)CC)C(=O)N[C@@H](CC(C)C)C(=O)N[C@H](C(=O)N[C@@H](CCCNC(=N)N)C(=O)N[C@H]1CC[C@H]1C(=O)N[C@@H](CCCNC(=N)N)C(=O)N[C@@H](Cc1ccc(O)cc1)C(N)=O)[C@@H](C)O (HELM PEPTIDE1{[ac].R.R.Y.I.N.[Nle].L.T.R.[O=C([C@@H]1CC[C@@H]1N[*:1])[*:2]].R.Y.[am]}$$$$V2.0)

Compound	Emax [1] [%]	Ki [2] [nM]	Ki [3] [nM]	EC50 [4] [nM]	Ki [5] [nM]	Ki [6] [nM]
CC[C@H](C)[C@H](NC(=O)[C@H](Cc1ccc(O)cc1)NC(=O)[C@H](Cc1cnc[nH]1)NC(=O)[C@H](CCCN=C(N)N)NC(C)=O)C(=O)N[C@@H](CC(N)=O)C(=O)N[C@@H](CC(C)C)C(=O)N[C@H](C(=O)N[C@@H]1C[C@H](C(=O)N[C@@H](CCCN=C(N)N)C(=O)N[C@@H]2C[C@H](C(=O)N[C@@H](CCCNC(=N)N)C(=O)N[C@@H](Cc3ccc(O)cc3)C(N)=O)C2(C)C)C1(C)C)[C@@H](C)CC (HELM PEPTIDE1{[ac].R.H.Y.I.N.L.I.[CC1(C)[C@@H](C(=O)[*:2])C[C@H]1N[*:1]].R.[CC1(C)[C@@H](C(=O)[*:2])C[C@H]1N[*:1]].R.Y.[am]}$$$$V2.0)	–	> 1000	> 1000	11	0.53	> 1000
CC[C@H](C)[C@H](NC(=O)[C@H](Cc1ccc(O)cc1)NC(=O)[C@H](Cc1cnc[nH]1)NC(=O)[C@H](CCCNC(=N)N)NC(C)=O)C(=O)N[C@@H](CC(N)=O)C(=O)N[C@@H](CC(C)C)C(=O)N[C@H](C(=O)N[C@H](C(=O)N[C@@H](CCCNC(=N)N)C(=O)N[C@H]1C[C@@H](C(=O)N[C@@H](CCCNC(=N)N)C(=O)N[C@@H](Cc2ccc(O)cc2)C(N)=O)C1(C)C)[C@@H](C)O)[C@@H](C)CC (HELM PEPTIDE1{[ac].R.H.Y.I.N.L.I.T.R.[CC1(C)[C@@H](N[*:1])C[C@H]1C(=O)[*:2]].R.Y.[am]}$$$$V2.0)	–	> 1000	> 1000	–	> 1000	> 1000
